# In patent US10273230B2, “Substituted phenyl alkanoic acid compounds as GPR120 agonists and uses thereof” (Piramal Enterprises Limited, priority 2014, dated 2019):
# Target: GPR120 receptor (Homo sapiens (Human), UniProt Q5NUL3)
# Test: Beta (β) arrestin 2 Interaction Assay (BRET assay), β-galactosidase enzyme fragment complementation
# Format: cell-based
# Conditions: CHO-K1 cells stably expressing the GPR120 receptor; β-arrestin recruitment; 2 hours incubation; 30 μM to 1 nM
# Method: Beta (β) arrestin 2 Interaction Assay (BRET assay) was performed using CHO-K1 cells stably expressing the GPR120 receptor using β-galactosidase (Beta gal) enzyme fragment complementation assay. The measurement of GPR120 activation upon agonist activation was directly provided by β-arrestin recruitment. One day before the β-arrestin 2 assay, CHO-K1 cells were seeded and incubated overnight at 37° C. in a 5% CO2 humidified atmosphere. Cells were treated with the test compounds in the various concentrations ranging from 30 μM to 1 nM and incubated for 2 hours for GPCR (GPR120) activation. Extent of Arrestin recruitment was measured by adding detection reagents for Beta gal complementation assay and was further incubated for 1 hour. The chemi-luminescent signal was detected on Polar Star (BMG Labtech). The dose-response curve was analyzed using Sigma Plot/Graph Pad. The EC50 (concentration of the test compounds where 50% of compounds' maximal activity is observed) values were calculated from the dose-response curve.
# Chain of GPR120 receptor (Q5NUL3 whole entry, the tested form may be a part): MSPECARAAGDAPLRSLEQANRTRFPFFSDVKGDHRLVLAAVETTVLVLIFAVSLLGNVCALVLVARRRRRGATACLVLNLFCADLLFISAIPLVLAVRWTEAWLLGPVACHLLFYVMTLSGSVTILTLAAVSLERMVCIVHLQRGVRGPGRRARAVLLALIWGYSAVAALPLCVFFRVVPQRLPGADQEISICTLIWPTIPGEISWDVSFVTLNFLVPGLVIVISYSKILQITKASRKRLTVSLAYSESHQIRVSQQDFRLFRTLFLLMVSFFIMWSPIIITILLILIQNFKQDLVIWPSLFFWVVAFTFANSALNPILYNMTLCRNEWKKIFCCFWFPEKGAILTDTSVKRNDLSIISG
# Chain of GPR120 receptor (P32121 whole entry partner, the tested form may be a part): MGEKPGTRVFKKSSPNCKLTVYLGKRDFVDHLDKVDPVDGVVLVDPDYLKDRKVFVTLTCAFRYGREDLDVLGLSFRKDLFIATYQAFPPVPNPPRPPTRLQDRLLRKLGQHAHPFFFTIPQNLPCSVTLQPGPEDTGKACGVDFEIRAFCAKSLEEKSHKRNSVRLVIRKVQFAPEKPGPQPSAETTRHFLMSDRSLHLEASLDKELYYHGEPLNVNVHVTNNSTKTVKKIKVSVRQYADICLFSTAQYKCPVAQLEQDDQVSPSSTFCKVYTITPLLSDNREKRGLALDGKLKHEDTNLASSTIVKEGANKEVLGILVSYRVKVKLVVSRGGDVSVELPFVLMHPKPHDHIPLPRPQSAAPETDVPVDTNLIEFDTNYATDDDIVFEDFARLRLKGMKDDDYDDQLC
row,SMILES,EC50
1,"N#CC1(c2ccc(C3=C(COc4ccc(CCCC(=O)O)cc4)CCCC3)cc2)CC1 [Example 1, 4-(4-((4′-(1-cyanocyclopropyl)-3,4,5,6-tetrahydro-[1,1′-biphenyl]-2-yl)methoxy)phenyl) butanoic Acid]",500 to 5000 nM
2,"O=C(O)CCCc1ccc(OCC2=C(c3nc4c(s3)CCCC4)CCCC2)cc1 [Example 4, 4-(4-((2-(4,5,6,7-tetrahydrobenzo[d]thiazol-2-yl)cyclohex-1-en-1-yl)methoxy)phenyl) butanoic Acid]",500 to 5000 nM
3,"COc1ccc(C2=C(COc3ccc(CCCC(=O)O)cc3)CCCC2)cc1 [Example 6, 4-(4-((4′-methoxy-3,4,5,6-tetrahydro-[1,1′-biphenyl]-2-yl)methoxy)phenyl)butanoic Acid]",500 to 5000 nM
4,"O=C(O)CCCc1ccc(OCC2=C(c3ccc(C4CC4)cc3)CCCC2)cc1 [Example 7, 4-(4-((4′-cyclopropyl-3,4,5,6-tetrahydro-[1,1′-biphenyl]-2-yl)methoxy)phenyl)butanoic Acid]",50 to 500 nM
5,"Nc1ncc(C2=C(COc3ccc(CCCC(=O)O)cc3)CCCC2)cc1C(F)(F)F [Example 8, 4-(4-((2-(6-amino-5-(trifluoromethyl)pyridin-3-yl)cyclohex-1-en-1-yl)methoxy)phenyl)butanoic Acid]",500 to 5000 nM
6,"O=C(O)CCCc1ccc(OCC2=C(c3ccc4c(c3)CCCC4)CCCC2)cc1 [Example 9, 4-(4-((2-(5,6,7,8-tetrahydronaphthalen-2-yl)cyclohex-1-en-1-yl)methoxy)phenyl) butanoic Acid]",50 to 500 nM
7,"O=C(O)CCCc1ccc(OCC2=C(C3=CCCCC3)CCCC2)cc1 [Example 10, 4-(4-([1,1′-bi(cyclohexane)]-1,1′-dien-2-ylmethoxy)phenyl) butanoic Acid]",500 to 5000 nM
8,"COc1ccc(C2=C(COc3ccc(CCCC(=O)O)cc3)CCCC2)cn1 [Example 14, 4-(4-((2-(6-methoxypyridin-3-yl)cyclohex-1-en-1-yl)methoxy)phenyl) butanoic Acid]",500 to 5000 nM
9,"Cc1ccc(C2=C(COc3ccc(CCCC(=O)O)cc3)CCCC2)cc1 [Example 15, 4-(4-((4′-methyl-3,4,5,6-tetrahydro-[1,1′-biphenyl]-2-yl)methoxy)phenyl) butanoic Acid]",50 to 500 nM
10,"N#CC1(c2ccc(C3=C(COc4ccc(CCCC(=O)O)cc4)CCCCC3)cc2)CC1 [Example 21, 4-(4-((2-(4-(1-cyanocyclopropyl)phenyl)cyclohept-1-en-1-yl)methoxy)phenyl) butanoic Acid]",500 to 5000 nM
11,"Cc1ccc(C2=C(COc3ccc(CCCC(=O)O)cc3)CCCCC2)cc1 [Example 22, 4-(4-((2-(p-tolyl)cyclohept-1-en-1-yl)methoxy)phenyl)butanoic Acid]",50 to 500 nM
12,"N#CC1(c2ccc(C3=C(COc4ccc(CCCC(=O)O)cc4)COCC3)cc2)CC1 [Example 48, 4-(4-((4-(4-(1-cyanocyclopropyl)phenyl)-5,6-dihydro-2H-pyran-3-yl)methoxy)phenyl) butanoic Acid]",500 to 5000 nM
13,"O=C(O)CCCc1ccc(OCC2=C(c3ccc4c(c3)CCCC4)CCOC2)cc1 [Example 49, 4-(4-((4-(5,6,7,8-tetrahydronaphthalen-2-yl)-5,6-dihydro-2H-pyran-3-yl)methoxy)phenyl) butanoic Acid]",500 to 5000 nM
14,"Cc1ccc(OC2=C(COc3ccc(CCCC(=O)O)cc3)CCCC2)cc1 [Example 50, 4-(4-((2-(p-tolyloxy)cyclohex-1-en-1-yl)methoxy)phenyl)butanoic Acid]",500 to 5000 nM
15,"CC1CCC(c2ccc(C3(C#N)CC3)cc2)=C(COc2ccc(CCCC(=O)O)cc2)C1 (stereo not shown) [Example 53, 4-(4-((4′-(1-cyanocyclopropyl)-4-methyl-3,4,5,6-tetrahydro-[1,1′-biphenyl]-2-yl)methoxy)phenyl)butanoic Acid]",500 to 5000 nM
16,"Cc1ccc(C2=C(COc3ccc(CCCC(=O)O)cc3)CC(F)CC2)cc1 (stereo not shown) [Example 54, 4-(4-((4-fluoro-4′-methyl-3,4,5,6-tetrahydro-[1,1′-biphenyl]-2-yl)methoxy)phenyl) butanoic Acid]",500 to 5000 nM
